How the values were obtained:
A549 = assay: Cytotoxicity against human A549 cells after 24 hrs by MTT assay; assay type: functional, cell-based; conditions: A549, 24 h
HepG2 = assay: cells; conditions: Homo sapiens, HepG2, 24 h
Description: Cytotoxicity against human HepG2 cells after 24 hrs by MTT assay

SK-N-SH = assay: Cytotoxicity against human SK-N-SH cells after 24 hrs by MTT assay; assay type: functional, cell-based
HeLa = assay: cells; conditions: Homo sapiens, 24 h
Description: Cytotoxicity against human HeLa cells after 24 hrs by MTT assay

MCF7 = assay: Cytotoxicity against human MCF7 cells after 24 hrs by MTT assay; assay type: functional, cell-based; conditions: MCF7, 24 h
Dihydrofolate reductase = target: T1, Dihydrofolate reductase (Homo sapiens, UniProt P00374); assay: Inhibition of human DHFR assessed as depletion of NADPH after 30 secs shaking by spectrophotometry
T1 sequence (P00374 whole entry): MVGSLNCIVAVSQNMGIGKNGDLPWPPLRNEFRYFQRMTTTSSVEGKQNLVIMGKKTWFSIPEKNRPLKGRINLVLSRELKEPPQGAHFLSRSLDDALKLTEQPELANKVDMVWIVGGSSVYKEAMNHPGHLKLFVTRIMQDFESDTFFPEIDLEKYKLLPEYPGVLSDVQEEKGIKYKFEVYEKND

Compound | IC50 (A549) [µM] | IC50 (HepG2) [µM] | IC50 (SK-N-SH) [µM] | IC50 (HeLa) [µM] | IC50 (MCF7) [µM] | IC50 (Dihydrofolate reductase) [µM]
O=c1nc2ccccn2cc1Cc1ccccc1 | 104 | > 1000 | 95.4 | > 1000 | 75.4 | 
O=c1nc2ccc(Cl)cn2cc1Cc1ccc(F)cc1 | 98.3 | > 1000 | 9.86 | > 1000 | 10.4 | 
O=c1nc2ccc(Br)cn2cc1Cc1ccc(Cl)cc1 | 105 | > 1000 | 0.94 | > 1000 | > 1000 | 
O=c1nc2ccc(Br)cn2cc1Cc1ccc(Br)cc1 | 102 | > 1000 | 0.87 | 931 | 97.2 | 
Cc1ccc(Cc2cn3cc(Cl)ccc3nc2=O)cc1 | > 1000 | > 1000 | 0.86 | > 1000 | > 1000 | 
COc1ccc(Cc2cn3cc(Br)ccc3nc2=O)cc1 | > 1000 | > 1000 | 0.94 | 928 | > 1000 | 
O=c1nc2ccc(Cl)cn2cc1Cc1ccc([N+](=O)[O-])cc1 | > 1000 | > 1000 | 0.94 | 928 | > 1000 | 
O=c1nc2ccc(Cl)cn2cc1Cc1ccc(Oc2nc(Cl)c(Cl)cc2Cl)cc1 | > 1000 | 992 | 8.69 | > 1000 | 96.9 | 
O=c1nc2ccc(Br)cn2cc1Cc1cccc(Oc2nc(Cl)c(Cl)cc2Cl)c1 | > 1000 | > 1000 | 9.24 | > 1000 | 9.77 | 2.73
O=c1nc2ccccn2cc1Cc1ccc(F)cc1C(F)(F)F | > 1000 | 804 | 8.69 | 88 | 9.87 | 3.1
O=c1nc2ccccn2cc1Cc1ccc(Br)cc1 | > 1000 | > 1000 | 163 | > 1000 | 157 | 
O=c1nc2ccc(Br)cn2cc1Cc1ccccc1 | > 1000 | > 1000 | 137 | 152 | > 1000 | 
O=c1nc2ccc(Cl)cn2cc1Cc1ccc(F)cc1C(F)(F)F | > 1000 | > 1000 | 106 | > 1000 | 181 | 
O=c1nc2ccccn2cc1Cc1ccc(F)cc1 | > 1000 | > 1000 | 125 | 139 | 200 | 
Nc1cccn2cc(Cc3ccccc3)c(=O)nc12 | 98 | 131 | 116 | 112 | 105 | 8.72
Nc1cc(Br)cn2cc(Cc3ccccc3)c(=O)nc12 | > 1000 | > 1000 | 149 | > 1000 | > 1000 | 
Nc1cccn2cc(Cc3ccc(F)cc3)c(=O)nc12 | > 1000 | > 1000 | 126 | > 1000 | 135 | 
Nc1cc(Br)cn2cc(Cc3ccc(F)cc3C(F)(F)F)c(=O)nc12 | > 1000 | > 1000 | 133 | > 1000 | 151 | 
CC1(C)OC2O[C@@H](Cc3cn4ccccc4nc3=O)C(OCc3ccccc3)C2O1 (stereo partly specified) | 199 | > 1000 | > 1000 | > 1000 | > 1000 | 
CC1(C)OC2O[C@@H](Cc3cn4cc(Cl)ccc4nc3=O)C(OCc3ccccc3)C2O1 (stereo partly specified) | 182 | > 1000 | > 1000 | > 1000 | > 1000 | 
O=C1N=C2C=CC=CN2CC1C(O)c1cccs1 (stereo unspecified) | 248 | > 1000 | > 1000 | 166 | 166 | 
O=c1nc2ccccn2cc1Cc1cccc(Oc2ccccc2)c1 | > 1000 | > 1000 | 141 | > 1000 | 243 | 
COc1cccc2c1C(=O)c1c(O)c3c(c(O)c1C2=O)C[C@@](O)(C(=O)CO)C[C@@H]3O[C@H]1C[C@H](N)[C@H](O)[C@H](C)O1 [DOXORUBICIN] | 10.6 |  | 10.9 | 1.12 |  | 
